{"source": "patent US20240165043A1", "about": "“COMPOSITIONS FOR THE TREATMENT OF A DISEASE OF THE URINARY TRACT AND TREATMENT OF A DISEASE INVOLVING THE INTRACELLULAR DELIVERY OF THE PARTICLE OR A MEDICAMENT CONTAINED THEREIN” (UCL BUSINESS LTD, priority 2018, published 2024)", "key": {"[1]": {"system": "HBLAK-derived bladder organoids", "assay": "Cell toxicity assay (LDH release)", "format": "cell-based, human", "details": "CapFuran 2 mg/ml; equivalent free nitrofurantoin 200 mg/ml as printed; 60 minutes; N=6", "method": "A colorimetric […] (LDH) assay kit (Thermo Scientific) was used to measure potential cell damage from CapFuran or nitrofurantoin. The procedure was carried out as directed by the manufacturer. HBLAK-derived bladder organoids were grown for 14 days then exposed to 1000 μl of culture media (control) or 1000 μl of culture media containing CapFuran 1 mg/ml; CapFuran 2 mg/ml; 100 μg/ml unencapsulated nitrofurantoin; 200 μg/ml Nitrofurantoin; 100 μl of 10× lysis buffer (maximum LDH control); or culture medium containing 10% ultra-pure water (to measure spontaneous LDH release). Experiments were carried out in triplicates. All organoids were subsequently incubated for 60 minutes at […] in 5% CO2. After incubation, 50 μl of medium from the apical chamber of each treated organoid was transferred to 3 wells of a flat-bottomed […] (Corning). […] To quantify the amount of LDH released, the 96 well plate was read using a colorimetric sphectrophotometer (Biochrom EZ Read 400) at an absorbance of 492 nm and 650 nm. Microsoft Excel was used to subtract the background reading from the LDH reading before calculating cytotoxicity in % using the following formula: % Cytotoxicity=Treatment associated LDH release−Spontaneous LDH release×100 Maximum LDH activity−Spontaneous LDH release"}, "[2]": {"system": "human bladder epithelial cells (HBLAK)", "assay": "Cellular uptake of cargo, two-dimensional monolayer", "format": "cell-based", "details": "free FITC at 2.5 mg/mL", "text": "Commercially available human bladder epithelial cells (HBLAK, CelINTec), which are a spontaneously immortalised, non-transformed derivative of progenitor cells that retain the ability to differentiate, were supplied in frozen aliquots containing ˜5×10^5 cells at passage 2 and ˜0.5×10^5 at passage 25 respectively. The progenitor cells had been isolated from bladder trigone biopsies from male patients undergoing surgery for benign prostatic hyperplasia. HBLAK cells were used up until passage 40-50.\nThawed cells were seeded (˜300 cell clumps/cm^2) into pre-warmed and equilibrated low-calcium, high-bovine pituitary extract, primary epithelial medium (CnT-Prime, Cell N Tec) in 9 cm polystyrene dishes and incubated at 37° C. in a humidified incubator under 5% CO2. Culture medium was replaced after overnight incubation to remove residual dimethyl sulfoxide (DMSO). Antibiotics were not added to culture medium at any point due to adverse effects on cytodifferentiation, metabolism and morphology. […]\n(§1) We performed epi-fluorescence microscopy on an Olympus CX-41 upright microscope, and confocal laser scanning microscopy on Leica SP5 and SP2 microscopes. […] For both still and live imaging, images were processed and analysed using Infinity Capture and Analyze V6.2.0, ImageJ 1.50 h 50 and the Leica Application Suite, Advanced Fluorescence 3.1.0 build 8587 Software."}, "[3]": {"system": "human urothelial organoid model", "assay": "Cellular uptake of cargo, three-dimensional bladder organoid", "format": "cell-based", "details": "two hours of treatment; free FITC at equivalent amount (14 ug/mL)", "method": "The three-dimensional bladder organoid model has been described (Horsley et al, 2017, https://doi.org/10.1101/152033). Briefly, organoids were created as follows. In preparation for organotypic culture, previously frozen cells were thawed and expanded on 9 cm culture dishes as above. Once 70-80% confluent, the cells were washed briefly with calcium- and magnesium-free phosphate buffered saline (PBS, Sigma-Aldrich) and incubated at 37° C. in ˜3 ml of pre-warmed Accutase solution for 2-5 min. The dishes were lightly tapped and detached cells re-suspended in 7 ml of warm CnT-Prime. After centrifugation at 200×g for 5 min, the supernatant was removed and the pellet re-suspended in fresh CnT-Prime. This cell suspension was counted whilst allowing the cells to equilibrate for 3 min at room temperature. […]\nThe 3D culture inserts were incubated for 3-5 days until 100% confluent. Confluency was determined through the fluorescent staining of 1 insert and visualisation under epi-fluorescence microscopy (see section below). […]\nas §1"}}, "data": [{"molecule": "O=C1CN(/N=C/c2ccc([N+](=O)[O-])o2)C(=O)N1", "note": "[nitrofurantoin]", "values": [{"measurement": "Cytotoxicity (LDH release), mean", "setting": "[1]", "result": 6.60, "unit": "%"}]}, {"molecule": "fluorescein isothiocyanate [free FITC]", "values": [{"measurement": "FITC staining of cells by free diffusion", "setting": "[2]", "result": "faint green staining to all cells"}, {"measurement": "FITC penetration through cell layers", "setting": "[3]", "result": "negligible penetration"}]}]}
